“Also recorded” adds a separate entry of the source.
Tests used:
Type in all cases: in vivo, chickens (Gallus gallus)
Ross 708 male broilers = assay: Clinical study of in-feed AGPs in broilers: weight gain and feed conversion; conditions: in-feed: 50 g/ton BMD, 20 g/ton avilamycin, 16.5 g/ton virginiamycin, 70 g/ton narasin; 35 days
From the text: 500 healthy Ross 708 male broilers sourced from a commercial hatchery were used in the experiment. […] Birds were individually tagged with a unique identifier and were randomly assigned to one of 25 floor pens (20 animals per pen). Groups of 5 pens were assigned to each of 5 different treatments. The 5 treatments included: 1) control birds fed least-cost diets as follows: A starter diet was fed from days 0 to 14 of the study, followed by a grower diet (14-28d) and a finisher diet (28-35d). 2) Birds fed the above diets supplemented with 50 g/ton BMD. 3) Supplemented with 20 g/ton avilamycin. 4) Supplemented with 16.5 g/ton Virginiamycin. And 5) supplemented with 70 g/ton narasin. Birds were raised for 35 days in a barn on top of used litter.
Individual body weights were collected on days 0, 7, 21 and 35. Pen weights were collected on days 14 and 28. Feed weigh backs for each pen were done on days 7, 14, 21, 28 and 35 of the study. Average bird weights and feed intake per pen were used to calculate weekly values of average daily gain and feed conversion ratios. Weekly values were compared between treatments using the Mann Whitney U test. On days 7, 21 and 35 three birds per pen were randomly selected and euthanized for the collection of cecal contents and blood. Blood was collected via wing vein venipuncture, except for birds that were too small, in which cases direct heart puncture was used. In both cases, blood was collected into vacutainer tubes and centrifuged to obtain serum. Cecal samples were collected by aseptically squeezing the cecum content into a sterile tube. Cecal samples were placed on dry ice immediately after collection. All samples were stored at −80° C. until processing.

cecal microbiome = assay: Shotgun metagenomics (functional/taxonomic profiles, GSEA) of cecal microbiome, day 35 broilers; conditions: day 35 cecal samples
Method: 74 frozen cecal samples from day 35 birds were sent to CosmosID (Rockville, MD) for shotgun metagenomics sequencing. DNA was extracted using the ZymoBIOMICS DNA Miniprep Kit (ZymoBIOMICS, Irvine, CA) according to the manufacturers protocol. The isolated DNA was quantified by Qbit (ThermoFisher, Coon Rapids, MN). DNA libraries were prepared using the Illumina Nextera XT library preparation kit (Illumina, San Diego, CA), with a modified protocol. Libraries were then sequenced on an Illumina HiSeq platform 2×150 bp.
Reads were trimmed and Illumina adapters removed using Trimmomatic (v 0.39) (Bolger et al., Bioinformatics 30, 2114-2120 (2014)) with options SLIDINGWINDOW:5:20 LEADING:3 TRAILING:3. Host reads (Gallus gallus, GenBank assembly GCA_000002315) and spike-in reads from Vibrio harveyii (ATCC 14126) were removed using Bowtie2 (v. 2.3.5.1) (Langmead et al., Nat Methods 9, 357-359 (2012)).
Taxonomic profiling of individual reads was carried out using Kaiju (v. 1.7.3) (Menzel et al., Nat Commun 7, 11257 (2016)) with the nr_euk database. Kaiju outputs were summarized for each read as the number of bases aligned to proteins in the reference database. In cases of individual reads mapping to more than one taxonomic group, the number of bases assigned to each taxon was calculated as the alignment length (in base pairs) multiplied by the fraction of bases assigned unambiguously to said taxon out of all the taxa to which the read mapped. The numbers of assigned bases per read were used to estimate species-level relative abundances using metametamerge (v. 1.1) (Piro, V. C., et al., Microbiome 5, 101 (2017).) taking into account the average coding length per species in the nr_euk database.
Functional profiling was done by first assembling the reads from each sample into contigs using Spades (v. 3.13.1, option --meta) (Nurk, S. et al., Genome Res 27, 824-834 (2017)), with default parameters, followed by protein prediction with Prokka (v. 1.14.5) (Seemann, T. Prokka: Bioinformatics 30, 2068-2069 (2014).). Predicted protein sequences were aligned to a reference database and using Diamond (v. 0.9.30) (Buchfink, B. et al. Nat Methods 18, 366-368 (2021)) and annotated based on the function assigned to the top hit in the database. To avoid misannotations, (Plata, G. et al. Nat Chem Biol 8, 848-854 (2012)) the inventors only considered hits with at least 70% identity and 70% query coverage. The reference database was built starting from 46,181 complete bacterial genomes downloaded from the PATRIC (Davis, J. J. et al. Nucleic Acids Res 48, D606-D612 (2020)) database representing at most 10 genomes per species from ˜400 taxonomic families including those most frequently observed in broiler microbiomes. To speed up functional annotations, protein sequences within each family in the database were clustered at 90% sequence identity using CD-HIT (v. 4.8.1) (Huang, Y. et al. Bioinformatics 26, 680-682 (2010)) and the longest sequence from each cluster was kept for the diamond search.
To quantify the abundance of each function per sample, reads were mapped to the corresponding contigs using BWA (v. 0.7.17) (Li, H. & Durbin, R. Bioinformatics 25, 1754-1760 (2009)), and reads mapping to each predicted protein were counted with HTseq (v. 0.11.3) (Anders, S. et al. Bioinformatics 31, 166-169 (2015)). Read counts per RAST functional role were TPM normalized based on the Prokka protein lengths (Zhao, S. et. al. RNA 26, 903-909 (2020)) and expressed in units of mean copy numbers per genome by calculating a normalization factor such that the median abundance of a set of universal-single copy bacterial genes (Creevey, C. J. et al. PLOS One 6, e22099 (2011)) was set to 1 (Manor, O. & Borenstein, E. Genome Biology 16, 53 (2015)). A similar procedure was used to produce a copy-number normalized matrix of functional roles across samples stratified by the bacterial genera of the protein hits used to transfer functional annotations. […]

[1] = system: AMR genes in the cecum microbiome; assay: AMR gene abundance analysis (AMR++ pipeline) of cecal microbiome; conditions: day 35 cecum
Method: AMR gene abundances per sample were determined using the AMR++ pipeline (Lakin, S. M. et al., Nucleic Acids Res 45, D574-D580 (2017)) (v. 2.0.2) starting from the raw metagenomics sequences and using the MegaRes (v. 2.0.0) database. Only genes involved in drug resistance were considered. The AMR gene counts per sample obtained from AMR++ were expressed in unites of reads per kilobase per million reads (RPKM) based on the corresponding gene lengths from the MegaRes database. RPKM values across treatments were compared using the Mann-Whitney U test.

## CC[C@@H](C(=O)O)[C@@H]1O[C@@H]([C@@H](C)[C@H](O)[C@H](C)C(=O)[C@H](CC)[C@H]2O[C@]3(C=C[C@@H](O)[C@]4(CC[C@@](C)([C@H]5CC[C@](O)(CC)[C@H](C)O5)O4)O3)[C@H](C)C[C@@H]2C)[C@@H](C)C[C@@H]1C [narasin]
Ross 708 male broilers
  impact on bird performance: highest impact on performance
Cecal microbiome
  functional processes depleted in cecal microbiome relative to controls (GSEA): utilization of mucin polysaccharides as well as cell matrix components including sialic acid, N-acetylneuraminate and hyaluronic acid
  functional processes enriched in cecal microbiome relative to controls (GSEA): propanediol utilization, molybdenum-containing cofactor synthesis and CO2 fixation via the Wood-Ljungdahl pathway; also recorded: Tryptophan synthesis, urea degradation, heme and tetrapyrrole biosynthesis, and xylose utilization
[1]
  effect on AMR gene abundance profiles: significantly different AMR gene abundance profiles
[1]; Mann-Whitney U p-value<0.05
  AMR gene classes changed compared to controls: enriched for resistance to tetracyclines
[1]; RPKM
  total AMR gene abundance compared to control: significant increase

Reference: US20250163522A1, “METHODS FOR PRESERVING HEALTHY INTESTINAL MICROBIOME DURING GROWTH PROMOTER ADMINSTRATION” (BIOMEDIT, LLC, priority 2022, published 2025)
